Key:
caspase-8 = biological target: T1, caspase-8 (Homo sapiens, UniProt Q14790); assay: Assay for the caspase inhibitory effect (fluorescent substrate AcDEVD-AFC); assay type: biochemical; details: pH 7.5; 2.1 nM caspase-8, 50 μM AcDEVD-AFC, 25° C., pH 7.50; read-out: Caspase-8 Kobs/[I] (converted)
T1 construct: p10 and p20 subunits (Thornberry, N. A. et al, Nature, 1992, 356, 768) were expressed in E. coli; made in house; host or cells: E. coli
Method: Caspase-1 and caspase-8 known as cysteine proteases in the form of α2β2 were expressed, purified, and activated by modifying a method known in Thornberry, N. A. et al, Nature, 1992, 356, 768; Thornberry, N. A. Methods in Enzymology, 1994, 244, 615; Walker, N. P. C. et al. Cell, 1994, 78, 343, and caspase-9 was also purified by a similar method, and the inhibitory activity against them was tested. Briefly describing, p10 and p20 subunits (Thornberry, N. A. et al, Nature, 1992, 356, 768) were expressed in E. coli and purified by nickel column and anionic exchange chromatography to give caspase-1, caspase-8 and caspase-9. The fluorescent substrates AcYVAD-AFC for thus obtained caspase-1, AcDEVD-AFC for caspase-8, and AcLEHD-AFC for caspase-9, were used for determining specific activity of the synthesized inhibitors. The enzyme reaction was carried cut at 25° C. with various concentrations of the inhibitors in a buffer solution containing 50 mM HEPES(pH 7.50), 10% (w/v) sucrose, 0.1% (w/v) CHAPS, 100 mM NaCl, 1 mM EDTA, and 10 mM DTT in the presence of 50 μM AcYVAD-AFC for 10 nM caspase-1, 50 μM AcDEVD-AFC for 2.1 nM caspase-8, and 150 μM AcLEHD-AFC for 200 nM caspase-9. The inhibitory constants Ki and Kobs of the inhibitors were determined by measuring the reaction velocity with the time lapse using a fluorescent spectrometer and by obtaining the initial rate constant. Ki was calculated from the Lineweaver Burk Plot, and Kobs from the following Equation 1.
Kobs=−ln (1−At/Aoo)/t [Equation 1]
At means cleavage rate (%) at time t, and
Aoo means the maximum cleavage rate (%).
Spectra MAX GeminiXS Fluorescent Spectrometer of Molecular Device Co. W is used at the excitation wavelength of 405 nm and the emission wavelength of 505 nm.

[1] = system: Jurkat cell (ATCC TIB-152); assay: Jurkat cell apoptosis induced by Fas antibody, WST-1 method; assay type: cell-based; details: Homo sapiens, amount of alive Jurkat cells by WST-1
Method: The […] inhibitory activity of the inhibitors was determined by subjecting Jurkat cell (ATCC TIB-152) to apoptosis using Fas antibody (Upstate Biotech 05-201) and by detecting the color change according to the WST-1 method known in Francoeur A. M. and Assalian A. (1996) Biochemica 3, 19-25 to observe the amount of alive Jurkat cells when the cells were treated by the inhibitor. Spectra MAX 340 Spectrometer of Molecular Device Co. was used at the absorbance wavelength of 440 nm.

T1 sequence (Q14790 217-374 limits assumed, species assumed): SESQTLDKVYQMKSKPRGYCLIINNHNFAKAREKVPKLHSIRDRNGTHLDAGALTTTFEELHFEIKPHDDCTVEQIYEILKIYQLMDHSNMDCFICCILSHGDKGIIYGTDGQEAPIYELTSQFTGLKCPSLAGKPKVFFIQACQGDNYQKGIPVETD
T1 sequence (Q14790 385-479 limits assumed, species assumed): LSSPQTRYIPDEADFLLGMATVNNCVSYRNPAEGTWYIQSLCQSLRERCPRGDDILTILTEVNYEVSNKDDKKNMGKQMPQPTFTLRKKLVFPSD

| Compound | kinact/KI (caspase-8) [M⁻¹ s⁻¹] | IC50 [1] [µM] |
| --- | --- | --- |
| CCC(C(=O)NC(CC(=O)O)C(=O)CF)c1cccn(Cc2ccccc2C(C)(C)C)c1=O (stereo not drawn) [Example 8, 3-{2-[1-(2-tert-Butyl-benzyl)-2-oxo-1,2-dihydro-pyridin-3-yl]-butyrylamino}-5-fluoro-4-oxo-pentanoic acid] | 33300 | 0.18 |
| CC(C)C(C(=O)NC(CC(=O)O)C(=O)CF)c1cccn(Cc2ccccc2)c1=O (stereo not drawn) [Example 6, 3-[2-(1-Benzyl-2-oxo-1,2-dihydro-pyridin-3-yl)-3-methyl-butyrylamino]-5-fluoro-4-oxo-pentanoic acid] | 3500 | 2.16 |
| CCC(C(=O)NC(CC(=O)O)C(=O)CF)c1c(C)ccn(CCc2ccccc2)c1=O (stereo not drawn) [Example 3, 5-Fluoro-3-[2-(4-methyl-2-oxo-1-phenethyl-1,2-dihydro-pyridin-3-yl)-butyrylamino]-4-oxo-pentanoic acid] | 750 |  |
| CCC(C(=O)NC(CC(=O)O)C(=O)CF)c1c(C)ccn(CC(C)C)c1=O (stereo not drawn) [Example 4, 5-Fluoro-3-[2-(1-isobutyl-4-methyl-2-oxo-1,2-dihydro-pyridin-3-yl)-butyrylamino]-4-oxo-pentanoic acid] | 733 | 0.39 |
| CCC(C(=O)NC(CC(=O)O)C(=O)CF)c1cccn(Cc2ccccc2)c1=O (stereo not drawn) [Example 5, 3-[2-(1-Benzyl-2-oxo-1,2-dihydro-pyridin-3-yl)-butyrylamino]-5-fluoro-4-oxo-pentanoic acid] | 16700 | 0.81 |
| CCCC(C(=O)NC(CC(=O)O)C(=O)CF)c1cccn(Cc2ccccc2)c1=O (stereo not drawn) [Example 7, 3-[2-(1-Benzyl-2-oxo-1,2-dihydro-pyridin-3-yl)-pentanoylamino]-5-fluoro-4-oxo-pentanoic acid] | 6670 | 0.64 |
| CCC(C(=O)NC(CC(=O)O)C(=O)CF)c1c(C)ccn(-c2ccccc2)c1=O (stereo not drawn) [Example 1, 5-Fluoro-3-[2-(4-methyl-2-oxo-1-phenyl-1,2-dihydro-pyridin-3-yl)-butyrylamino]-4-oxo-pentanoic acid] | 467 | 4.9 |
| CCC(C(=O)NC(CC(=O)O)C(=O)CF)c1c(C)ccn(Cc2ccccc2)c1=O (stereo not drawn) [Example 2, 3-[2-(1-Benzyl-4-methyl-2-oxo-1,2-dihydro-pyridin-3-yl)-butyrylamino]-5-fluoro-4-oxo-pentanoic acid] | 1830 | 2.43 |

— US20100016376A1, “CASPASE INHIBITORS BASED ON PYRIDONE SCAFFOLD” (LG Life Sciences Ltd., priority 2006, published 2010)
